Measured values as given in patent publication US9469639B2, “Naphthylurea derivatives and medical applications thereof” (RADIANT PHARMA & TECH. CO., LTD., priority 2013, dated 2016).
≈ marks a conversion by molar mass, not a printed value.

Assay: Water-solubility test
Format: physicochemical
Settings: 22° C.; for solubility at 24 h: water, pH 5.5, water, thermodynamic from solid, ultrasonic mixing for 24 hours, pH5.5, average of two experiments

Structure (SMILES)	solubility at 24 h [µg/mL]	Water solubility relative to compound (IV) (pH5.5, ratio versus compound (IV)) [times]
Cc1cccc(NC(=O)Nc2ccc(-c3cncc4[nH]nc(N)c34)c3ccccc23)c1 [Compound (IV)]	0.0925 (≈ 0.226 µM)	
Cc1ccc(F)c(NC(=O)Nc2ccc(-c3ccc(OCCCN4CCCC4)c4[nH]nc(N)c34)c3ccccc23)c1 [Compound (V)]	0.64 (≈ 1.16 µM)	6.9
